Data set [1] can be described thus: Penetration of 14C AWD 12-281 through murine back skin (Franz diffusion cell). The data set is classed as in vitro ADME, mouse. As for the experimental part:
FIG. 1: Cutaneous permeation of ^14C AWD 12-281 measured using a “Franz” diffusion cell and murine back skin. Activity of ^14C AWD 12-281 was measured in […] during 360 min incubation. Results of two independent experiments. 15 μl (110322970 dpm) of ^14C AWD 12-281 (dissolved in acetone/DMSO 1:1) was applied to the shaved skin.
The ability of ^14C AWD 12-281 to penetrate through murine back skin was tested in a diffusion cell (Franz cell). Dry shaved murine back skin was set onto the diffusion cell so that 1.5 cm (diameter) of the dermal side were in contact with warmed (34° C.) buffer (bovine serum). 15 μl (110322970 dpm) of ^14C AWD 12-281 (dissolved in acetone/DMSO 1:1) were applied to the shaved skin. Samples were taken 15, 60, 120, 180, 240, 300, 360 min and the radioactivity was measured in a β counter (Beckman, Munich, Germany). The experiment was performed twice.

For data set [2], the system named is mice sensitized to TDI. The experiment in a line: Mouse ear swelling test in mice sensitized to toluene-2,4-diisocyanate (TDI), topical application. Format: in vivo, BALB/c-mice. Conditions: for TDI-induced ear swelling: AWD 12-281 1%, cilomilast 3%, diflorasone 0.05%. As for the experimental part: FIG. 6: Effect of PDE 4 inhibitors on TDI induced ear swelling in mice. […] After 1 h (grey bars) groups of mice were treated with 3% AWD 12-281, 10% cilomilast or left untreated (TDI). After 24 h, ear swelling was determined (black bars). […] Female BALB/c-mice were obtained from Charles River (Sulzfeld, Germany) at the age of 8 weeks (20 g body weight). All animals were healthy and were housed in groups of six mice per cage at 22° C. with a 12-h light/dark-cycle. Water and a standard diet (Altromin, […], Germany) were available ad libitum. After settling in for 1 week, the abdominal skin of the mice was shaved and depilated with Veet®. Subsequently, the horny layers of the abdominal skin were stripped off ten times with adhesive tapes. […] Before as well as 24 h after challenge, the ear thickness was measured with a cutimeter (model 7309, Mitutoyo, Neuss, Germany) The swelling was calculated by comparison of the values before challenge with 24 h after challenge. […] The other mice were equally distributed to the treatment groups (n=6) according to their swelling intensity, so that each group contained animals which had responded to varying extents. They had to rest until the ear thickness had reached almost a normal level after 7 days. To exclude residues of the allergen on the ears, the untreated right ears were used for the main experiment. One group of mice (n=6) was not sensitized and challenged. […] Two hours before TDI-challenge, the third and fourth group (each n=6) were treated with 20 μl (10 μl on both, the inner and outer surface) AWD 12-281 (1%=200 μg) or 20 μl cilomilast (3%=600 μg; each in acetone/DMSO 9:1) to the right ears. […] These mice were sacrificed by cervical dislocation 24 hours after TDI challenge and the ears were collected (see below). […] Five weeks after the first challenge, the animals treated with AWD 12-281 (1%) and cilomilast (3%) “therapeutically” were challenged again. Before challenge, one group was treated with AWD 12-281 (3%).

The test system of data set [3] is interleukin 6. Description: IL-6 in homogenized mouse ears after TDI challenge (ELISA). The data set is classed as in vivo, BALB/c-mice. The method, then: (§1) One part of the collected ears was fixed in 4% formaldehyde for histological section and stained with haematoxylin-eosin with respect to dermal thickness and granulocyte accumulation. These parameters were measured in 10 fields at 40 times magnification. The remaining tissue was shock-frozen and stored in liquid nitrogen immediately after sampling. For the determination of biochemical parameters, the mice ears were homogenized under liquid nitrogen. The homogenates were taken in 200 μl RPMI 1640 medium and the protease inhibitor Pefabloc® (1 mmol) was added and the samples were mixed intensively. After centrifugation (10000 g, 10 min, 4° C.), the supernatant was collected and the protein content was determined. The samples were stored at −80° C. until the cytokines were determined. Interleukin (IL) 4, IL-6 and MIP-2 were measured in the samples by ELISA using commercially available kits according to manufacturers instructions.

The test system of data set [4] is human eosinophils. To be noted: in vitro; Ezeamuzie, 2001; cited from earlier work.
Data set [5] deals with interleukin 4. The experiment in a line: IL-4 in homogenized mouse ears after TDI challenge (ELISA). The data set is classed as in vivo, BALB/c-mice. As for the experimental part:
as §1
(In general: An ELISA detects its analyte on a solid surface through an enzyme-linked reagent.)

Data set [6] deals with PDE4. Conditions: Griswold et al., 1998, Kuss et al., 2002; cited from earlier work.
The test system of data set [7] is human cells from nasal polyps. Conditions: antigen stimulated; Kuss et al., 2002; cited from earlier work.
The test system of data set [8] is domestic pigs. To be noted: Kuss et al., 2002; cited from earlier work.
Data set [9] deals with granulocyte influx in the dermis of mice ears. Description: Histological examination of mouse ear skin after TDI challenge. Format: in vivo, BALB/c-mice. The method, then:
as §1

For data set [10], the system named is mice sensitized to TDI (long term exposure). Description: TDI induced ear swelling after long term (120 days) repeated exposure sensitization. Format: in vivo. Conditions: 120 days sensitization, AWD 12-281 3% 1 h after challenge. The method, then: FIG. 4: Effect of AWD 12-281 on TDI induced ear swelling in mice sensitized to TDI using a long term (120 days) repeated exposure sensitization paradigm. Bars represent ear swelling 1, 5 and 24 h after TDI challenge.
Furthermore, an experiment was carried out to obtain information on the therapeutic effects of AWD 12-281 in a model of long term exposure to TDI. Thus 10 mice were treated with 100 μl 0.5% TDI on the abdominal skin in intervals of 10 days for 120 days. Ten days after the last abdominal TDI treatment, mice were challenged on the left ear with 20 μl 0.5% TDI, split in 10 μl onto the outer and inner surface of the ear, respectively. One hour after TDI challenge 5 mice were treated with AWD 12-281 (3%), 5 mice were sham treated. Before as well as 1, 5 and 24 h after challenge, the ear thickness was measured.

[11] abbreviates: 24 h after TDI challenge, AWD 12-281 3%, rechallenge.
Where [12] appears, read: 24 h after TDI challenge, topical 2 h before challenge, AWD 12-281 1%, cilomilast 3%, diflorasone 0.05%.
Setting [13] is: AWD 12-281 3%, cilomilast 3%, diflorasone 0.05%, 24 h after TDI challenge.

Where “and” joins values, the source holds several entries; their conditions need not be identical. Equal values may be shown once. Entries after “also recorded” stand apart in the source; their conditions may differ.

In the case of `O=C(Nc1c(Cl)cncc1Cl)C(=O)c1cn(Cc2ccc(F)cc2)c2ccc(O)cc12` [AWD 12-281, N-(3,5-Dichloro-4-pyridinyl)-2-[1-(4-fluoro-benzyl)-5-hydroxy-1 H-indol-3-yl]-2-oxoacetamide], in data set [1] (14C AWD 12-281 in acetone/DMSO 1:1 on shaved murine back skin, 360 min (6 h) after application, two independent experiments), the “amount of radioactivity measured in buffer, % of the total activity (cumulative absorption)” value is 0.22% and 0.08%. Also, the “absorption compared to hydrocortisone” value in [1] (AWD 12-281 murine skin after 6 h vs hydrocortisone in human skin in Franz cells (Hueber et al., 1994)) is reported as “tenfold higher absorption compared to hydrocortisone”. In data set [2] (AWD 12-281 3% topical before challenge, rechallenge five weeks after first challenge, 24 h after TDI challenge, vehicle control 51 ± 7, mean ± s.e.), the “Ear swelling (%)” value was 1 ± 2 %. In addition, the TDI-induced ear swelling result is “inhibited the TDI-induced swelling significantly at all measured times” in data set [2] (single topical application 2 h before TDI challenge, 1, 5 and 24 h after challenge); “reduced the inflammatory response to TDI significantly; also recorded: inhibited the TDI induced ear swelling significantly” in [2] (topical 1 h after TDI challenge (therapeutic), 24 h after challenge); “significant inhibition of ear swelling” in data set [2] (topical 1 h after TDI challenge (therapeutic), 24 h after challenge, listed as AWD12-281). Besides, the “TDI induced ear swelling” value in data set [2] (treated 1 h after 0.5% TDI, 3% AWD 12-281, 10% cilomilast, ear swelling after 24 h (FIG. 6)) is listed as “reduced ear swelling significantly”; in data set [10] (1 and 5 h after challenge), “no significant difference between the groups”; in data set [10] (5 h after challenge) it was “slight inhibition”; in data set [10] (24 h after challenge), “nearly abolished the TDI induced swelling; also recorded: inhibited the swelling significantly”. For the same compound, the “concentration of interleukin 6 in mouse skin” value in data set [3] (setting [11]) is listed as “inhibited this response significantly”. The “concentration of interleukin 6 in homogenized mouse ears” value in data set [3] (setting [12]) was “weak significantly; also recorded: inhibited this response significantly; also recorded: only a slight effect”. Also, the “IL-6, mean inhibition (%) of the TDI induced synthesis” value in data set [3] (setting [13]) amounted to 52%. The compound further gave an IL-6 in data set [3] (AWD 12-281 3%, homogenized mouse ears 24 h after TDI challenge (rechallenge), vehicle control 89 ± 5, mean ± s.e.) of 42 ± 6 pg/400 µg protein. Further, in data set [4], the “degranulation of human eosinophils” value was “inhibited the degranulation”. Also, the “concentration of interleukin 4 in mouse skin” value in [5] (setting [11]) is “inhibited the increase significantly”. Also, the “concentration of interleukin 4 in homogenized mouse ears” value in data set [5] (setting [12]) is reported as “reduced the increase slightly; also recorded: slight inhibitory effect”. Also, the “IL-4, mean inhibition (%) of the TDI induced synthesis” value in data set [5] (setting [13]) is 80% and 81%. The IL-4 in data set [5] (AWD 12-281 3%, homogenized mouse ears 24 h after TDI challenge (rechallenge), vehicle control 67 ± 2, mean ± s.e.) is 12 ± 3 pg/400 µg protein. For the same compound, in [6], the “IC50 for PDE4 relative to cilomilast” value is “about ten times lower than that of cilomilast”. In addition, the “release of inflammatory mediators such as GM-CSF, TNF-α and histamine” value in [7] was “inhibited the release of inflammatory mediators”. Further, in data set [8], the “LPS induced lung neutrophilia” value is “inhibitory effects”. Also, in data set [9] (AWD 12-281 (3%) treated mouse ears, long term exposure study (not shown)), the “inflammatory cells and vascular leakage, histological examination” value was “nearly total absense of inflammatory cells and vascular leakage”. The “edema and influx of inflammatory cells (mainly granulocytes)” value in data set [9] (mouse ear skin 24 h after TDI challenge, topical treatment) is “inhibited these inflammatory processes markedly”.

Values taken from US20040038958A1, “Topical treatment of skin diseases” (priority 2002, published 2004).
